Measured values taken from US6620842B2, “Chalcones” (Indena SpA, priority 1999, dated 2003).
pIC50: −log10 of the molar value.

What was measured:
[1] = test system: drug-resistant cancer cells
Description: (§1) The treatment consisted of concurrent exposure of MDA-435/LCC-MDR cells to paclitaxel in the presence or absence of the compounds reversing agent (1 μM) for 72 h in vitro. Assessment of cytotoxicity, i.e. cell growth inhibition, was determined according to the methods of Skehan, et al. as discussed in J. Nat.
(§2) Briefly, cells were plated between 400 and 1200 cells/well in 96 well plates and incubated at 37° C. for 15-18 h prior to drug addiction to allow attachment of cells. Compounds were solubilized in 100% DMSO and further diluted in RPMI-1640 containing 10 mM HEPES. After a 72 h incubation, 100 μl of ice-cold 50% TCA was added to each well and incubated for 1 h at 40° C. Plates were then washed 5 times with tap water to remove TCA, low-molecular weight metabolites and serum proteins. Suforhodamine B (SRB) (0.4%, 50 μl) was added to each well. Following a five minute incubation at room temperature, plates were rinsed 5 times with 0.1% acetic acid and air dried. Bound dye was solubilized with 10 mM Tris Base (pH 10.5) for 5 mm on a gyratory shaker. Optical density was measured at 570 nm.

[2] = Cytotoxicity of the compounds alone against drug-resistant cancer cells; settings: human, MDA-435/LCC-MDR cells (drug-resistant cancer cells)
Description: as §1, §2

[3] = test system: drug-resistant breast cancer cells MDA-435/LCC6-MDR; experiment: Cytostatic activity of paclitaxel alone or in combination with the compounds (SRB cell growth inhibition); assay type: cell-based; settings: IC50 of paclitaxel alone or in presence of compound (reversing agent, 1 μM), MDA-435/LCC6-MDR cells, 72 h
Description: The compounds were then evaluated in combination with paclitaxel for their cytostatic activity against the drug-resistant breast cancer cells MDA-435/LCC6-MDR.
In the experiments, the compounds were used in combination with paclitaxel, the paclitaxel being at a concentration of 0.3 μM.
Cancer Inst, 82, 1107, 1990.

Compound	IC50 at 72 h [2] [nM]	other results
1-[3-Methyl-7-(Prop-2-ynyloxy)flavon-8-yl]-Phenyl-Propen-1-one [VIB 167]	–	pIC50 [1]: < 6.00
COc1cc(C=CC(=O)c2c(OCC=C(C)C)ccc3c(=O)c4ccccc4oc23)cc(OC)c1OC [VIB 178, 1-[3-(3-Methylbut-2-Enyloxy)Xanthen-9-one-4-yl]-3-(3,4,5-Tri-Methoxyphenyl)-Propen-1-one]	> 1000	–
COc1cc(C=CC(=O)c2c(OCC=C(C)C)ccc3c(=O)c(C)c(-c4ccccc4)oc23)cc(OC)c1OC [VIB 173, 1-[3-Methyl-7-(3-Methylbut-2-Enyloxy)Flavon-8-yl]-3-(3,4,5-Tri-Methoxy)Phenyl-Propen-1-one]	> 1000	–
CC(=O)O[C@H]1C(=O)[C@@]2(C)[C@H]([C@H](OC(=O)c3ccccc3)[C@]3(O)C[C@H](OC(=O)[C@H](O)[C@@H](NC(=O)c4ccccc4)c4ccccc4)C(C)=C1C3(C)C)[C@]1(OC(C)=O)CO[C@@H]1C[C@@H]2O [Paclitaxel, paclitaxel]	–	IC50 [3]: 426 nM
